In US4051141A, “Thieno[3,2-c]pyridine derivatives” (Centre d'Etudes pour l'Industrie pharmaceutique, priority 1973, dated 1977):

Columns and labels:
[1] = Acute toxicity, LD50/24 hrs, intravenous, derivatives of formula (IV); conditions: mouse, in vivo, mice, read-out: LD50/24 hrs/kg body weight
Text: It concerned the acute toxicity, the subacute toxicity, the chronic toxicity, the tolerance and the teratology of said derivatives.

[2] = test system: ovalbumin-induced edema; experiment: Ovalbumin-induced systemic edema method (anti-inflammatory action); assay type: in vivo; conditions: rats, oral 100 mg (1 h before and with ovalbumin)
Method: b. Ovalbumin-induced Systemic Edema Method Rats are administered a simultaneous intraperitoneal injection of 1 ml ovalbumin and 0.5 ml of a 1.[…]. aqueous Evans Blue solution. The animals of the treated lot are additionally administered orally 100 mg of the test derivative, one hour prior to ovalbumin administration and simultaneously with said ovalbumin administration. The intensity of the phenomenon thus induced is scored according to a scale from 1 to 5, according to the progress of the inflammatory syndrome. Thus are determined the mean intensity of the edema and the percent decrease of the edema reaction with respect to the control lot. Said percentage, for derivative No. 5, for example, is 62% after two hours and 70% after three hours.

[3] = test system: blood plate aggregation; experiment: Inhibitor action on blood plate aggregation induced by adenosine diphosphate (turbidimetric assay of serum from treated animals); assay type: in vivo; conditions: rats, 100 mg/kg
Text: 2. Inhibitor Action on Blood Plate Aggregation
The normally cloudy blood plate rich serum of rats is made clear by addition of adenosine diphosphate which induces aggregation of the blood plates. […] Thus, the inhibitor action on blood plate aggregation of the test derivatives may be evaluated by means of a simple spectrophotometric turbidimetric assay.

[4] = test system: carrageenin-induced edema; experiment: Localised carrageenin-induced edema method (anti-inflammatory action); assay type: in vivo; conditions: rats, oral 100 mg/kg (1 h before, with, 1 h and 2.5 h after)
Method: a. Localised Carrageenin-induced Edema Method A 1% carrageenin solution (1 ml) is injected in the metatarsal flexor muscles of the right hind paw of rats at time O. The animals of the treated lots are additionally administered orally 100 mg/kg of the test derivative, respectively one hour prior to and then simultaneously with the phlogogenic agent, and then one hour and 2.5 hrs thereafter. The percent anti-inflammatory activity with respect to the reference lot, as a function of time, is determined by measurements effected with a Roch micrometer at times O, one hour, two hours, three hours and five hours after carrageenin administration.

[5] = in vivo; conditions: mouse, iv, read-out: LD50/24 hrs/kg body weight

Row | Structure (SMILES) | LD50 at 24 h [1] | other results
1 | O=C(C[n+]1ccc2sccc2c1)c1ccccc1.[Br-] [derivative No. 24, 5-phenacyl-thieno[3,2-c]pyridinium bromide] | 19 mg/kg | –
2 | Cl.Clc1ccc(CN2CCc3sccc3C2)cc1 [derivative 5, 5-parachlorobenzyl-4,5,6,7-tetrahydro-thieno-[3,2-c]pyridine hydrochloride] | – | percent decrease of the edema reaction with respect to the control lot ([2]; after three hours): 70%; percent decrease of the edema reaction with respect to the control lot ([2]; after two hours): 62%; protection against blood plate aggregation [3]: greater than 95%; percent anti-inflammatory activity with respect to the reference lot ([4]; after five hours): 55%; percent anti-inflammatory activity with respect to the reference lot ([4]; after one hour): 45%; percent anti-inflammatory activity with respect to the reference lot ([4]; after three hours): 52%; percent anti-inflammatory activity with respect to the reference lot ([4]; after two hours): 51%
3 | O=C(C[n+]1ccc2sccc2c1)c1ccc(F)cc1.[Cl-] [derivative No. 29, 5-para-fluoro-phenacyl-thieno[3,2-c]pyridinium chloride] | 16 mg/kg | –
4 | O=C(C[n+]1ccc2sc(Cl)cc2c1)c1ccccc1.[Br-] [derivative No. 26, 2-chloro-5-phenacyl-thieno[3,2-c]pyridinium bromide] | 38 mg/kg | –
5 | COc1ccc(C(=O)C[n+]2ccc3sccc3c2)cc1.[Br-] [derivative No. 31, N-(para-methoxy-phenacyl)-thieno[3,2-c]pyridinium bromide] | 32 mg/kg | –
6 | O=C(C[n+]1ccc2sccc2c1)c1ccc(Cl)cc1.[Br-] [derivative No. 27, N-parachloro-phenacyl-thieno[3,2-c]pyridinium bromide] | 17.5 mg/kg | –
7 | COc1ccccc1C(=O)C[n+]1ccc2sccc2c1 [derivative No. 25, 5-(O-Methoxy-Phenacyl)-Thieno[3,2-c]Pyridinium bromide] | 18 mg/kg | –
8 | O=C(C[n+]1ccc2sccc2c1)c1ccc(O)cc1.[Cl-] [derivative No. 30, N-(para-hydroxy-phenacyl)-thieno[3,2-c]pyridinium chloride] | 25 mg/kg | –
9 | COc1cccc(C(=O)C[n+]2ccc3sccc3c2)c1.[Br-] [derivative No. 32, N-(meta-methoxy-phenacyl)-thieno[3,2-c]pyridinium bromide] | 16 mg/kg | –
10 | COc1cc(CN2CCc3sccc3C2)cc(OC)c1OC [derivative 3, 5-(3,4,5-trimethoxy-benzyl)-4,5,6,7-tetrahydrothieno[3,2-c]pyridine] | – | LD50 at 24 h [5]: 60 mg/kg
